From US8017585B2, “CXCR4 antagonist and use thereof” (priority 2002, dated 2011)
Numbered stars: 1 amine (or outer) side, 2 acyl side, 3 side chain; on linkers, the order of the positions; unused ones are H or OH. Bridge positions count the residues as written; N and C are the ends. Square brackets hold non-standard residues; d marks the D form. Peptide text beside a SMILES is read from it. * marks the point of attachment. X4 = CN(C)C(=N[C@@H](CCCNC(=N)N)C(=O)*)N(C)C; Pentanoyl(5-guanidino) = NC(N)=NCCCCC(=O)*; 2Nal = N[C@@H](Cc1ccc2ccccc2c1)C(=O)O; X1 = N=C(N)NCCC[C@H](NC(=N)N)C(=O)*; Glutaryl = O=C(CCCC(=O)[*:2])[*:1]; Benzoyl(4-F) = O=C(c1ccc(F)cc1)*; dCit = NC(=O)NCCC[C@@H](N)C(=O)O; Cit = NC(=O)NCCC[C@H](N)C(=O)O; Suc = O=C(CCC(=O)[*:2])[*:1]; X5 = O=C(c1ccccc1F)*

What follows are compounds tested against T1, CXCR4 receptor (Homo sapiens, UniProt P61073) (assay: Inhibition of 125I-CXCL12 binding to CXCR4 receptor on Jurkat cells). Conditions: Table 1, 125I-CXCL12, 1 hour at room temperature, compounds as acetate salt, read-out: IC50 (nM), inhibitory activity against CXCL12 binding to CXCR4 receptor.
T1 construct: 50 μL of Jurkat human T-cell leukemia cells (6×10^6 cells/mL) suspended in buffer; endogenous in cells; host or cells: Jurkat human T-cell leukemia cells
T1 sequence (P61073 whole entry): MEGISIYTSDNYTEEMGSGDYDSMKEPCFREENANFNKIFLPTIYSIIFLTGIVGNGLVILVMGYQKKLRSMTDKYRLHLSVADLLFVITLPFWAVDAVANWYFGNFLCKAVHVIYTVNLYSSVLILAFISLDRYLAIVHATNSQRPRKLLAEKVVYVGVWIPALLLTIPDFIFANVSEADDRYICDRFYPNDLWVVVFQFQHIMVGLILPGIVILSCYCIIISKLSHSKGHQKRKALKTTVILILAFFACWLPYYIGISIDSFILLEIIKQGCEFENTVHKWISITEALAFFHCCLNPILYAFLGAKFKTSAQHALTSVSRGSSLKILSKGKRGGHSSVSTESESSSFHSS
Experimental: After reaction, suction was made toward the reaction solution by 96 well GF/C filter plate, and each well's radioactivity was measured by top count. As the radioactivity index of 100% when the test compound was not added, and 0% when 100 nM of non-radioisotope-labeled CXCL12 was added, the inhibitory activity of each test compound was measured.

Structure (SMILES) | IC50
N=C(N)NCCC[C@H](NC(=O)[C@@H]1CSSC[C@H](NC(=O)[C@H](Cc2ccc3ccccc3c2)NC(=O)[C@H](CCCNC(=N)N)NC(=O)CCC(=O)O)C(=O)N[C@@H](Cc2ccc(O)cc2)C(=O)N[C@@H](CCCNC(N)=O)C(=O)N[C@@H](CCCCN)C(=O)N[C@H](CCC(=O)O)C(=O)N2CCC[C@H]2C(=O)N[C@@H](Cc2ccc(O)cc2)C(=O)N[C@@H](CCCNC(=N)N)C(=O)N[C@@H](CCCNC(N)=O)C(=O)N1)C(N)=O [TF10, succinyl-Arg-Nal-Cys-Tyr-Cit-Lys-DGlu-Pro-Tyr-Arg-Cit-Cys-Arg-NH2] (Suc-R[2Nal]CY[Cit]K[dE]PYR[Cit]CR-NH2; disulfide 3-12) | 48 nM
N=C(N)NCCCCC(=O)N[C@@H](CCCNC(=N)N)C(=O)N[C@@H](Cc1ccc2ccccc2c1)C(=O)N[C@H]1CSSC[C@@H](C(=O)N[C@@H](CCCNC(=N)N)C(N)=O)NC(=O)[C@H](CCCNC(N)=O)NC(=O)[C@H](CCCNC(=N)N)NC(=O)[C@H](Cc2ccc(O)cc2)NC(=O)[C@@H]2CCCN2C(=O)[C@@H](CCC(=O)O)NC(=O)[C@H](CCCCN)NC(=O)[C@H](CCCNC(N)=O)NC(=O)[C@H](Cc2ccc(O)cc2)NC1=O [TF8, desamino-R-Arg-Nal-Cys-Tyr-Cit-Lys-DGlu-Pro-Tyr-Arg-Cit-Cys-Arg-NH2] ({Pentanoyl(5-guanidino)}-R[2Nal]CY[Cit]K[dE]PYR[Cit]CR-NH2; disulfide 3-12) | 8.2 nM
N=C(N)NCCC[C@H](NC(=O)[C@@H]1CSSC[C@H](NC(=O)[C@H](Cc2ccc3ccccc3c2)NC(=O)[C@H](CCCNC(=N)N)NC(=O)CCCC(=O)O)C(=O)N[C@@H](Cc2ccc(O)cc2)C(=O)N[C@@H](CCCNC(N)=O)C(=O)N[C@@H](CCCCN)C(=O)N[C@H](CCC(=O)O)C(=O)N2CCC[C@H]2C(=O)N[C@@H](Cc2ccc(O)cc2)C(=O)N[C@@H](CCCNC(=N)N)C(=O)N[C@@H](CCCNC(N)=O)C(=O)N1)C(N)=O [TF11, glutaryl-Arg-Nal-Cys-Tyr-Cit-Lys-DGlu-Pro-Tyr-Arg-Cit-Cys-Arg-NH2] (Glutaryl-R[2Nal]CY[Cit]K[dE]PYR[Cit]CR-NH2; disulfide 3-12) | 630 nM
N=C(N)NCCC[C@H](NC(=O)[C@@H]1CSSC[C@H](NC(=O)[C@H](Cc2ccc3ccccc3c2)NC(=O)[C@H](CCCNC(=N)N)NC(=N)N)C(=O)N[C@@H](Cc2ccc(O)cc2)C(=O)N[C@@H](CCCNC(N)=O)C(=O)N[C@@H](CCCCN)C(=O)N[C@H](CCC(=O)O)C(=O)N2CCC[C@H]2C(=O)N[C@@H](Cc2ccc(O)cc2)C(=O)N[C@@H](CCCNC(=N)N)C(=O)N[C@@H](CCCNC(N)=O)C(=O)N1)C(N)=O [TF9, guanyl-Arg-Nal-Cys-Tyr-Cit-Lys-DGlu-Pro-Tyr-Arg-Cit-Cys-Arg-NH2] (X1-[2Nal]CY[Cit]K[dE]PYR[Cit]CR-NH2; disulfide 2-11) | 250 nM
CN(C)C(=N[C@@H](CCCNC(=N)N)C(=O)N[C@@H](CCCNC(=N)N)C(=O)N[C@@H](Cc1ccc2ccccc2c1)C(=O)N[C@H]1CSSC[C@@H](C(=O)N[C@@H](CCCNC(=N)N)C(N)=O)NC(=O)[C@H](CCCNC(N)=O)NC(=O)[C@H](CCCNC(=N)N)NC(=O)[C@H](Cc2ccc(O)cc2)NC(=O)[C@@H]2CCCN2C(=O)[C@@H](CCC(=O)O)NC(=O)[C@H](CCCCN)NC(=O)[C@H](CCCNC(N)=O)NC(=O)[C@H](Cc2ccc(O)cc2)NC1=O)N(C)C [TF3, TMguanyl-Arg-Arg-Nal-Cys-Tyr-Cit-Lys-DGlu-Pro-Tyr-Arg-Cit-Cys-Arg-NH2] (X4-R[2Nal]CY[Cit]K[dE]PYR[Cit]CR-NH2; disulfide 3-12) | 9.6 nM
N=C(N)NCCC[C@H](NC(=O)[C@@H]1CSSC[C@H](NC(=O)[C@H](Cc2ccc3ccccc3c2)NC(=O)[C@H](CCCNC(=N)N)NC(=O)[C@@H](N)CCCNC(=N)N)C(=O)N[C@@H](Cc2ccc(O)cc2)C(=O)N[C@H](CCC(=O)O)C(=O)N[C@@H](CCCCN)C(=O)N[C@H](CCC(=O)O)C(=O)N2CCC[C@H]2C(=O)N[C@@H](Cc2ccc(O)cc2)C(=O)N[C@@H](CCCNC(=N)N)C(=O)N[C@@H](CCCNC(N)=O)C(=O)N1)C(N)=O [TE14013, H-Arg-Arg-Nal-Cys-Tyr-DGlu-Lys-DGlu-Pro-Tyr-Arg-Cit-Cys-Arg-NH2] (H-RR[2Nal]CY[dE]K[dE]PYR[Cit]CR-NH2; disulfide 4-13) | 9.3 nM
CC(=O)N[C@@H](CCCNC(=N)N)C(=O)N[C@@H](CCCNC(=N)N)C(=O)N[C@@H](Cc1ccc2ccccc2c1)C(=O)N[C@H]1CSSC[C@@H](C(=O)N[C@@H](CCCNC(=N)N)C(N)=O)NC(=O)[C@H](CCCNC(N)=O)NC(=O)[C@H](CCCNC(=N)N)NC(=O)[C@H](Cc2ccc(O)cc2)NC(=O)[C@@H]2CCCN2C(=O)[C@@H](CCC(=O)O)NC(=O)[C@H](CCCCN)NC(=O)[C@H](CCCNC(N)=O)NC(=O)[C@H](Cc2ccc(O)cc2)NC1=O [TF1, Ac-Arg-Arg-Nal-Cys-Tyr-Cit-Lys-DGlu-Pro-Tyr-Arg-Cit-Cys-Arg-NH2] (Ac-RR[2Nal]CY[Cit]K[dE]PYR[Cit]CR-NH2; disulfide 4-13) | 11 nM
N=C(N)NCCC[C@H](NC(=O)[C@@H]1CSSC[C@H](NC(=O)[C@H](Cc2ccc3ccccc3c2)NC(=O)[C@@H](N)CCCNC(=N)N)C(=O)N[C@@H](Cc2ccc(O)cc2)C(=O)N[C@@H](CCCNC(N)=O)C(=O)N[C@@H](CCCCN)C(=O)N[C@H](CCC(=O)O)C(=O)N2CCC[C@H]2C(=O)N[C@@H](Cc2ccc(O)cc2)C(=O)N[C@@H](CCCNC(=N)N)C(=O)N[C@@H](CCCNC(N)=O)C(=O)N1)C(N)=O [TF17, H-Arg-Nal-Cys-Tyr-Cit-Lys-DGlu-Pro-Tyr-Arg-Cit-Cys-Arg-NH2] (H-R[2Nal]CY[Cit]K[dE]PYR[Cit]CR-NH2; disulfide 3-12) | 79 nM

More lines, in order of falling IC50, values ahead:

IC50 | Structure (SMILES)
8 nM | CN(C)C(=N[C@@H](CCCNC(=N)N)C(=O)N[C@@H](CCCNC(=N)N)C(=O)N[C@@H](Cc1ccc2ccccc2c1)C(=O)N[C@H]1CSSC[C@@H](C(=O)N[C@@H](CCCNC(=N)N)C(N)=O)NC(=O)[C@H](CCCNC(N)=O)NC(=O)[C@H](CCCNC(=N)N)NC(=O)[C@H](Cc2ccc(O)cc2)NC(=O)[C@@H]2CCCN2C(=O)[C@@H](CCCNC(N)=O)NC(=O)[C@H](CCCCN)NC(=O)[C@H](CCCNC(N)=O)NC(=O)[C@H](Cc2ccc(O)cc2)NC1=O)N(C)C [TF18, TMguanyl-Arg-Arg-Nal-Cys-Tyr-Cit-Lys-DCit-Pro-Tyr-Arg-Cit-Cys-Arg-NH2] (X4-R[2Nal]CY[Cit]K[dCit]PYR[Cit]CR-NH2; disulfide 3-12)
5.4 nM | N=C(N)NCCC[C@H](NC(=O)[C@@H]1CSSC[C@H](NC(=O)[C@H](Cc2ccc3ccccc3c2)NC(=O)[C@H](CCCNC(=N)N)NC(=O)[C@@H](N)CCCNC(=N)N)C(=O)N[C@@H](Cc2ccc(O)cc2)C(=O)N[C@H](CCC(=O)O)C(=O)N[C@@H](CCCCN)C(=O)N[C@H](CCCNC(N)=O)C(=O)N2CCC[C@H]2C(=O)N[C@@H](Cc2ccc(O)cc2)C(=O)N[C@@H](CCCNC(=N)N)C(=O)N[C@@H](CCCNC(N)=O)C(=O)N1)C(N)=O [TE14012, H-Arg-Arg-Nal-Cys-Tyr-DGlu-Lys-DCit-Pro-Tyr-Arg-Cit-Cys-Arg-NH2] (H-RR[2Nal]CY[dE]K[dCit]PYR[Cit]CR-NH2; disulfide 4-13)
3.9 nM | N=C(N)NCCC[C@H](NC(=O)[C@@H]1CSSC[C@H](NC(=O)[C@H](Cc2ccc3ccccc3c2)NC(=O)[C@H](CCCNC(=N)N)NC(=O)[C@H](CCCNC(=N)N)NC(=O)c2ccccc2F)C(=O)N[C@@H](Cc2ccc(O)cc2)C(=O)N[C@@H](CCCNC(N)=O)C(=O)N[C@@H](CCCCN)C(=O)N[C@H](CCC(=O)O)C(=O)N2CCC[C@H]2C(=O)N[C@@H](Cc2ccc(O)cc2)C(=O)N[C@@H](CCCNC(=N)N)C(=O)N[C@@H](CCCNC(N)=O)C(=O)N1)C(N)=O [TF6, 2F-benzoyl-Arg-Arg-Nal-Cys-Tyr-Cit-Lys-DGlu-Pro-Tyr-Arg-Cit-Cys-Arg-NH2] (X5-RR[2Nal]CY[Cit]K[dE]PYR[Cit]CR-NH2; disulfide 4-13)
3.3 nM | N=C(N)NCCC[C@H](NC(=O)[C@@H]1CSSC[C@H](NC(=O)[C@H](Cc2ccc3ccccc3c2)NC(=O)[C@H](CCCNC(=N)N)NC(=O)[C@H](CCCNC(=N)N)NC(=N)N)C(=O)N[C@@H](Cc2ccc(O)cc2)C(=O)N[C@@H](CCCNC(N)=O)C(=O)N[C@@H](CCCCN)C(=O)N[C@H](CCC(=O)O)C(=O)N2CCC[C@H]2C(=O)N[C@@H](Cc2ccc(O)cc2)C(=O)N[C@@H](CCCNC(=N)N)C(=O)N[C@@H](CCCNC(N)=O)C(=O)N1)C(N)=O [TF2, guanyl-Arg-Arg-Nal-Cys-Tyr-Cit-Lys-DGlu-Pro-Tyr-Arg-Cit-Cys-Arg-NH2] (X1-R[2Nal]CY[Cit]K[dE]PYR[Cit]CR-NH2; disulfide 3-12)
2.9 nM | N=C(N)NCCC[C@H](NC(=O)[C@@H]1CSSC[C@H](NC(=O)[C@H](Cc2ccc3ccccc3c2)NC(=O)[C@H](CCCNC(=N)N)NC(=O)[C@@H](N)CCCNC(=N)N)C(=O)N[C@@H](Cc2ccc(O)cc2)C(=O)N[C@@H](CCCNC(N)=O)C(=O)N[C@@H](CCCCN)C(=O)N[C@H](CCC(=O)O)C(=O)N2CCC[C@H]2C(=O)N[C@@H](Cc2ccc(O)cc2)C(=O)N[C@@H](CCCNC(=N)N)C(=O)N[C@@H](CCCNC(N)=O)C(=O)N1)C(N)=O [TE14011, H-Arg-Arg-Nal-Cys-Tyr-Cit-Lys-DGlu-Pro-Tyr-Arg-Cit-Cys-Arg-NH2] (H-RR[2Nal]CY[Cit]K[dE]PYR[Cit]CR-NH2; disulfide 4-13)
2.8 nM | N=C(N)NCCC[C@H](NC(=O)[C@@H]1CSSC[C@H](NC(=O)[C@H](Cc2ccc3ccccc3c2)NC(=O)[C@H](CCCNC(=N)N)NC(=O)[C@H](CCCNC(=N)N)NC(=O)c2ccc(F)cc2)C(=O)N[C@@H](Cc2ccc(O)cc2)C(=O)N[C@@H](CCCNC(N)=O)C(=O)N[C@@H](CCCCN)C(=O)N[C@H](CCC(=O)O)C(=O)N2CCC[C@H]2C(=O)N[C@@H](Cc2ccc(O)cc2)C(=O)N[C@@H](CCCNC(=N)N)C(=O)N[C@@H](CCCNC(N)=O)C(=O)N1)C(N)=O [TF5, 4F-benzoyl-Arg-Arg-Nal-Cys-Tyr-Cit-Lys-DGlu-Pro-Tyr-Arg-Cit-Cys-Arg-NH2] ({Benzoyl(4-F)}-RR[2Nal]CY[Cit]K[dE]PYR[Cit]CR-NH2; disulfide 4-13)
